Reference: patent US12134769B2, “MicroRNA-198 as a tumor suppressor in ovarian cancer” (Baylor College of Medicine, priority 2011, dated 2024)

Legend:
[1] = tested on: PBX-1 3′UTR; assay: Dual-luciferase reporter assay, PBX-1 3′UTR; assay type: cell-based; conditions: following miR-198 transfection/overexpression; firefly/Renilla ratio, 24 h
Experimental: A luciferase construct containing the first 491 bases of the PBX-1 3′UTR was purchased from Switchgear Genomics. Two mutant PBX-1 3′UTR reporters were subsequently generated using the Stratagene Quickchange Site-directed Mutagenesis kit, with the WT miR-198 binding site seed region either altered from TCTGGA to AAGCTT (a HindIII restriction site) or deleted entirely (FIG. 10).
(§1) Dual luciferase assays were performed according to the manufacturer's instruction. Luciferase expression analysis was performed at 24 h using the Dual-luciferase kit (Promega) and Sirius Luminometer (Berthold Detection System). Results are presented as the ratio of firefly to Renilla luciferase activities, normalized to controls.
The PBX-1 3′UTR region was cloned into the pSGG-3UTR vector (based on pGL4.11 vector with a MCS added after luciferase) after the reporter gene, firefly luciferase, whose expression is regulated by the SV40 promoter. A separate reporter for Renilla luciferase under the control of the CMV promoter was utilized to normalize for transfection efficiency. The identity of the 3′UTR sequence including the predicted miR-198 binding site was confirmed using the following primers: Fwd: […] [SEQ ID NO. 111], Rev: […]. [SEQ ID NO. 112]

[2] = tested on: MIA-MSLN cells; assay: Cell proliferation assay (MTT); assay type: cell-based, human; conditions: MIA-MSLN-miR-198 cells, after 5 days
Experimental: (§2) Cells were seeded in 96-well plates (2×10^3 cells per well) and serum starved for 24 h prior to differential FBS additions. 3-(4,5-Dimethylthiazol-2-yl)-2,5-diphenyltetrazolium bromide (MTT) was used to measure cell proliferation as previously described (Bharadwaj et al., 2011b).
(§3) Cell growth was assessed using MTT at 2, 3, 4, 5 and 6 days after releasing from starvation (not all data shown). Briefly, twenty microliters of MTT reagent mixed with 100 μL of growth medium was added to each well and incubated at 37° C. for 2 h. Cells were then lysed overnight using 100 μl of lysis buffer consisting of 20% SDS in 1:1 dimethyl formamide; H2O solution. Absorbance was recorded at 520 nm with an EL-800 universal microplate reader (Bio-Tek Instruments). Relative proliferation was calculated by dividing the reading by a Day 0 reading taken prior to serum starvation.

[3] = tested on: AsPC1 cells; assay: Cell proliferation assay (MTT); assay type: cell-based, human; conditions: AsPC1-miR-198 cells
Experimental: as §2, §3

[4] = tested on: MIA-MSLN cells; assay: Stable miR-198 overexpression, expression of network factors; assay type: cell-based, human; conditions: miR-198 overexpression in MIA-MSLN cells
Experimental: (§4) Western blots were performed as previously described (Li et al., 2008). Membranes were probed with: anti-MSLN monoclonal antibody (1:1000) (Abcam); PBX-1 polyclonal antibody (1:1000) and Caspase 3 antibody (1:1000) (Cell Signaling); OCT-2 polyclonal antibody (1:400), and VCP polyclonal antibody (1:200) (Santa Cruz Biotechnology); or anti-β-actin, Tubulin, LaminA or GAPDH antibodies (1:10,000) (Sigma Aldrich). Secondary incubation was performed with horseradish peroxidase-linked secondary antibody (1:2,000) (anti-mouse, anti-goat or anti-rabbit) (Cell Signaling).
(§5) MSLN-overexpressing stable cells (or empty vector controls) were selected in MIA PaCa-2 cells or HPDE cells (MIA-MSLN, HPDE-MSLN) or vector (MIA-V, HPDE-V) using retrovirus vectors expressing puromycin resistance (Origene) with 0.5 μg/mL of puromycin added into the medium as previously described (Zhang et al.). Stable cells overexpressing miR-198 or vector control were generated in AsPC-1 (AsPC-1-miR-198, AsPC-1-miR-Ctrl), MIA-MSLN (MIA-MSLN-miR-198, MIA-MSLN-miR-Ctrl), MIA-V (MIA-V-miR-198, MIA-V-miR-Ctrl), and HPDE cells (HPDE-miR-198, HPDE-miR-Ctrl) using the Lenti-miR miRNA Precursor Clone Collection (SBI). The miRZip Lentivector collection from SBI was used to stably knock down miR-198 in MIA-PaCa2 (MIA-V-Zip-198, MIA-V-Zip-Ctrl) and HPDE (HPDE-Zip-198, HPDE-Zip-Ctrl) cells.
(§6) Differential expression of 95 miRNAs chosen for their potential roles in cancer, cell development, and apoptosis was analyzed by RT-PCR using the QuantiMir System from SBI System Biosciences in both MIA-V and MIA-MSLN cells. The array plate also included the U6 transcript as a normalization signal. cDNAs from different cell lines and tissue samples were mixed with SYBR® Green Mastermix (Bio-Rad Laboratories) plus the universal reverse primer. Specific primers (1 μl) were added to each well of the qPCR plate. Expression levels of each mature miRNA were evaluated using comparative threshold cycle (Ct) method as normalized to that of U6 (2—ΔCt). The expression level of miR-198 was measured in all subsequent experiments using the same method. Real-time RT PCR was performed as previously described for MSLN, ZEB1, PBX-1, and VCP (Li et al., 2008).

[5] = tested on: AsPC1 cells; assay: as above; assay type: cell-based, human
Experimental: as §4, §5, §6

[6] = tested on: VCP 3′UTR; assay: Dual-luciferase reporter assay, VCP 3′UTR; assay type: cell-based; conditions: following miR-198 overexpression; firefly/Renilla ratio, 24 h
From the text: For MSLN, six constructs were generated: 400 or 600 bp segments containing the WT sequence or specific 3-nucleotide mutations in the seed region of each miR-198 binding site were synthesized by GenScript and subcloned into the pEZX-MT01 3′UTR construct from Genecopoeia at Xba1 and BamH1 restriction sites such that they were inserted after the luciferase gene (FIG. 10). The same process was used for the VCP reporter constructs containing the full-length VCP 3′UTR (FIG. 10).
as §1

[7] = tested on: AsPC1 cells; assay: Invasion assay across Matrigel; assay type: cell-based, human; conditions: AsPC1 cells following miR-198 overexpression
Experimental: Cell migration was determined with a modified Boyden chamber assay as described previously (Li et al., 2008). For invasion assays, Matrigel basement membrane matrix (BD Biosciences) was used by adding 100 ul of 1 mg/ml Matrigel to the migration chamber inserts prior to plating of the cells (Li et al., 2008, Bharadwaj).
An invasion assay was performed as described for the migration assay. For invasion, Matrigel basement membrane matrix (BD Biosciences) was used by adding 100 μl of 1 mg/ml Matrigel to the migration chamber inserts prior to plating of the cells.

Substance: miR-198: microRNA-198, SEQ ID NO: 1 gguccagaggggagauagg; used as transfected precursors (Ambion) or Lenti-miR stable overexpression (GGUCCAGAGGGGAGAUAGG; listed as RNA, chemistry not given here; listed as Homo sapiens)
- reduction in PBX-1 3′UTR luciferase expression [1]: 65%
- lower proliferation rates than MIA-MSLN and MIA-MSLN-miR-Ctrl cells [2]: approximately 3 fold
- proliferation rates vs AsPC1-miR-Ctrl cells [3]: significantly lower proliferation rates
- MSLN expression at the protein level [4]: almost complete reduction of MSLN expression
- MSLN mRNA expression levels [4]: partial decrease
- PBX-1 mRNA and protein expression [4]: almost undetectable
- VCP mRNA levels ([4]; FIG. 10I): reduces VCP down to MIA-V cell levels
- VCP mRNA levels downregulated ([5]; ASPC1 cells following miR-198 overexpression, FIG. 10J): ~5 fold
- VCP expression downregulated ([5]; AsPC1 cells following miR-198 overexpression, FIG. 3E): ~50 fold
- PBX-1 mRNA and protein expression ([5]; miR-198 overexpression in AsPC1 cells): almost undetectable
- decrease in VCP 3′UTR luciferase activity [6]: ~70%
- invasion decreased [7]: ~50%
